Results reported in patent publication US20240336566A1, “CRYSTALLINE FORMS OF A COMPOUND FOR THE TARGETED DEGRADATION OF THE ANDROGEN RECEPTOR” (Arvinas Operations, Inc., priority 2023, published 2024).
One block for each molecule: values may come before it.

Experiments:
Assay type in all cases: physicochemical
[1] = Thermodynamic solubility determination in buffers (HPLC); settings: for 0 Hr Solubility / 4 Hr Solubility / 24 Hr Solubility: 25° C.
Text: No clear solubility advantage of the salts was noted over Compound A free base.

[2] = 7-day stability assessment (appearance, HPLC, XRPD); settings: for Reported Purity / Total impurities: HPLC; for purity retained after stability storage (HPLC): after 7 days at 40° C./75% RH (open vial), 80° C. (closed vial), ambient light (closed vial)
Method: The material was gently ground to release any agglomerates and loaded onto a multi-well plate with Kapton or Mylar polymer film to support the sample. […] Data were visualized and images generated using the HighScore Plus 4.7 desktop application (PANalytical, 2θ17).
They all remained white or off-white solids. • XRPD analysis determined the patterns were retained.

[3] = Primary salt screen: XRPD post temperature cycling/evaporation, post drying and post storage at 40° C./75% RH; settings: post drying and 40° C./75% RH
Method: • 30 mg samples of Compound A were weighed out into 2 mL screw cap sample vials for 96 experiments. To these, 200 μL of the appropriate solvent system was added to dissolve the material or form a slurry. See Table 16 for the solvent systems selected for the primary salt screen.
• 1.05 eq. of solid counterions were weighed into six separate vials each and 1 molar stock solutions were prepared for liquid counterions in 5 mL of THF. See Table 17 for selected counterions and mass/volume needed for 1.05 eq. additions. • 100 μL of the appropriate solvent was added to the solid counterions.
The solution/slurry of counterion was added to the solution/slurry of the free base material.
• The samples were placed in an incubator shaker to temperature cycle between ambient and 40° C. over 4 hour cycles. • After ca. 72 hours of temperature cycling, observations were noted, see Table 19.
• Where slurries were obtained, the solids were isolated via centrifugation. Solids and gels were analyzed by XRPD.
Any samples that were clear solutions after temperature cycling were left to evaporate at ambient conditions. See Table 20 for observations made after evaporation. Solids obtained through evaporation were analyzed by XRPD.
• The samples obtained from temperature cycling were dried under vacuum at 40° C. for ca. 20 hours while the samples obtained from evaporation were dried under vacuum at 40° C. for ca. 4 hours. […]

[4] = Co-crystal screen: XRPD post temperature cycling and post storage at 40° C./75% RH;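 on XRPD results, primary co-crystal screen post temperature cycling: value is the Compound A free base XRPD pattern number and 9 means a potential new one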; settings: Compound A + 1.05 eq. co-former (= label)
[5] = Primary crystallization screen: XRPD before and after drying at 40° C.; settings: dried at 40° C. for approximately 18 h
Method: • 34×40 mg of Compound A was weighed into vials before the selected solvents were added to prepare slurries, where possible. See Table 29 for a list of solvent systems used and the volume of solvent used. • Stirrer bars were added to the vials, before the vials were sealed and temperature cycled with stirring between 5° C. and 40° C. The heating rate was 0.1° C./min and the samples were held at 5° C. and 40° C. for 2 hours. • After temperature cycling for 4 days, observations were made (see Table 29). Slurries were centrifuge filtered and the solids were analyzed by XRPD • The solids were dried at 40° C. for approximately 18 h before being re-analyzed by XRPD. • Saturated solutions were then split into 3 vials for the following experiments • Evaporation at ambient temperature • Cooling (5° C.). • Where no solids were obtained after 72 hours, the samples were moved to the freezer at −20° C. for further cooling. • Where no solids were obtained from further cooling, the samples were allowed to evaporate at ambient temperature. • Anti-solvent addition at ambient temperature. • Where no solids were obtained after 72 hours the samples were moved to the freezer at −20° C. to encourage crystallization. • Where no solids were obtained from cooling, the samples were allowed to evaporate at ambient temperature.

[6] = Buffer pH 1.2, cf concentration of free base, listed as Compound A Tosylate
[7] = Buffer pH 4.0, LOQ 0.00025 mg/mL
[8] = buffer, 25 °C, pH 3, aqueous buffer, thermodynamic from solid, Buffer pH 3.0, LOQ 0.00025 mg/mL
[9] = 7 days at 40° C./75% RH (open vial)
[10] = before stability testing (condition N/A)
[11] = 7 days at Ambient light (closed vial)
[12] = input material before storage (baseline of the stability assessment)
[13] = Buffer pH 1.2, cf concentration of free base, listed as Compound A Besylate
[14] = Buffer pH 3.0, LOQ 0.00025 mg/mL

0 Hr Solubility [1, 6]: 12.2 µg/mL
4 Hr Solubility [1, 6]: 15.4 µg/mL
24 Hr Solubility [1, 6]: 6.3 µg/mL
0 Hr Solubility [1, 7]: <0.25 µg/mL
4 Hr Solubility [1, 7]: <0.25 µg/mL
24 Hr Solubility ([1]; Buffer pH 4.0, LOQ 0.00025 mg/mL, listed as Compound A Tosylate): <0.25 µg/mL
solubility at 0 h [1, 8]: < 0.25 µg/mL
solubility at 4 h [1, 8]: < 0.25 µg/mL
solubility at 24 h [1, 8]: < 0.25 µg/mL
HPLC purity [2, 9]: 97.30 % relative area
Reported Purity ([2]; after 7 days at 80° C.): 96.76 Area %
Total impurities ([2]; after 7 days at 80° C.): 3.24 Area %
Reported Purity ([2]; after 7 days at ambient): 97.09 Area %
Total impurities ([2]; after 7 days at ambient): 2.91 Area %
Total impurities (HPLC) ([2]; after 7 days at 40° C./75% RH): 2.70 Rel. Area %
purity retained after stability storage (HPLC) [2]: > 96 % relative area
XRPD pattern after stability storage ([2]; after 7 days at each stability condition): gained an additional peak
Total impurities (HPLC) ([2]; before stability testing): 2.56 Rel. Area %
HPLC purity [2, 10]: 97.44 % relative area
assessment of salt form in the primary salt screen [3]: stable hydrates
SMILES: COc1cc(O[C@H]2C(C)(C)[C@H](NC(=O)c3ccc(N4CCC(CN5CCN(c6ccc(C(=O)N[C@H]7CCC(=O)NC7=O)c(F)c6)CC5)CC4)cc3)C2(C)C)ccc1C#N [tosylate Pattern 1]

XRPD results, primary co-crystal screen post storage at 40° C./75% RH ([4]; 1,4-Dioxane): 4
XRPD results, primary co-crystal screen post temperature cycling ([4]; 1,4-Dioxane): 9
XRPD results, primary co-crystal screen post storage at 40° C./75% RH ([4]; DCM:Methanol (50:50 % v/v)): 2
XRPD results, primary co-crystal screen post temperature cycling ([4]; DCM:Methanol (50:50 % v/v)): 2
XRPD results, primary co-crystal screen post storage at 40° C./75% RH ([4]; THF): 1
XRPD results, primary co-crystal screen post temperature cycling ([4]; THF): 1
SMILES: N[C@@H](Cc1c[nH]cn1)C(=O)O [L-Histidine]

SMILES: N[C@@H](Cc1c[nH]c2ccccc12)C(=O)O [L-Tryptophan]
XRPD results, primary co-crystal screen post temperature cycling ([4]; DCM:Methanol (50:50 % v/v)): 2

HPLC purity [2, 9]: 98.37 % relative area
XRPD after stability storage [2, 9]: No change
HPLC purity ([2]; 7 days at 80° C. (closed vial)): 98.33 % relative area
XRPD after stability storage ([2]; 7 days at 80° C. (closed vial)): No change
HPLC purity [2, 11]: 98.27 % relative area
XRPD after stability storage [2, 11]: No change
Reported Purity ([2]; after 7 days at 40° C./75% RH): 98.37 Area %
Total impurities ([2]; after 7 days at 40° C./75% RH): 1.63 Area %
Reported Purity ([2]; after 7 days at 80° C.): 98.33 Area %
Total impurities ([2]; after 7 days at 80° C.): 1.67 Area %
Reported Purity ([2]; after 7 days at ambient): 98.27 Area %
Total impurities ([2]; after 7 days at ambient): 1.73 Area %
Reported Purity [2, 12]: 98.39 Area %
Total impurities [2, 12]: 1.61 Area %
purity retained after stability storage (HPLC) [2]: > 98 % relative area
HPLC purity [2, 10]: 98.39 % relative area
SMILES: COc1cc(O[C@H]2C(C)(C)[C@H](NC(=O)c3ccc(N4CCC(CN5CCN(c6ccc(C(=O)N[C@H]7CCC(=O)NC7=O)c(F)c6)CC5)CC4)cc3)C2(C)C)ccc1C#N [free base Pattern 2]

XRPD results, primary co-crystal screen post storage at 40° C./75% RH ([4]; 1,4-Dioxane): 4
XRPD results, primary co-crystal screen post temperature cycling ([4]; 1,4-Dioxane): 9
XRPD results, primary co-crystal screen post storage at 40° C./75% RH ([4]; DCM:Methanol (50:50 % v/v)): 2
XRPD results, primary co-crystal screen post temperature cycling ([4]; DCM:Methanol (50:50 % v/v)): 2
XRPD results, primary co-crystal screen post storage at 40° C./75% RH ([4]; THF): 1
XRPD results, primary co-crystal screen post temperature cycling ([4]; THF): 1
SMILES: NC(N)=O [Urea]

0 Hr Solubility [1, 13]: 13.3 µg/mL
4 Hr Solubility [1, 13]: 7.3 µg/mL
24 Hr Solubility [1, 13]: 9.3 µg/mL
0 Hr Solubility [1, 14]: <0.25 µg/mL
4 Hr Solubility [1, 14]: <0.25 µg/mL
24 Hr Solubility [1, 14]: <0.25 µg/mL
0 Hr Solubility [1, 7]: <0.25 µg/mL
4 Hr Solubility [1, 7]: <0.25 µg/mL
24 Hr Solubility ([1]; Buffer pH 4.0, LOQ 0.00025 mg/mL, listed as Compound A Besylate): < 0.25 µg/mL
Reported Purity ([2]; after 7 days at 40° C./75% RH): 97.31 Area %
Total impurities ([2]; after 7 days at 40° C./75% RH): 2.69 Area %
Reported Purity ([2]; after 7 days at 80° C.): 97.56 Area %
Total impurities ([2]; after 7 days at 80° C.): 2.44 Area %
Reported Purity ([2]; after 7 days at ambient): 97.17 Area %
Total impurities ([2]; after 7 days at ambient): 2.83 Area %
Reported Purity [2, 12]: 97.33 Area %
Total impurities [2, 12]: 2.67 Area %
purity retained after stability storage (HPLC) [2]: > 97 % relative area
assessment of salt form in the primary salt screen [3]: stable hydrates
SMILES: COc1cc(O[C@H]2C(C)(C)[C@H](NC(=O)c3ccc(N4CCC(CN5CCN(c6ccc(C(=O)N[C@H]7CCC(=O)NC7=O)c(F)c6)CC5)CC4)cc3)C2(C)C)ccc1C#N [besylate Pattern 1]

XRPD form upon drying [5]: converted to Pattern 8
SMILES: COc1cc(O[C@H]2C(C)(C)[C@H](NC(=O)c3ccc(N4CCC(CN5CCN(c6ccc(C(=O)N[C@H]7CCC(=O)NC7=O)c(F)c6)CC5)CC4)cc3)C2(C)C)ccc1C#N [free base Pattern 5]
